# From patent US8524634B2, “Seed treatment with combinations of pyrethrins/pyrethroids and clothianidin” (priority 2000, dated 2013)
# How the values were obtained:
# Type in all cases: in vivo
# black cutworm larvae [1] = experiment: Black cutworm feeding damage on corn: lambda-cyhalothrin seed treatment vs tefluthrin soil granular treatments (Reference Example 1); conditions: for Plant Defol. 3 DAI / Plant Defol. 7 DAI / Plant Defol. 10 DAI: rating 1=no damage, 10=complete defoliation
# Protocol: This example compares the efficacy of seed treatment with lambda-cyhalothrin (CAS #91465-08-6) to soil granular treatments with tefluthrin (CAS #79538-32-2) against feeding damage by black cutworm larvae on shoots and foliage.
# (§1) A lambda-cyhalothrin seed treatment formulation was prepared by diluting the WARRIOR® T insecticide (Zeneca Ag Products, Wilmington, Del.), which contains 11.4% lambda-cyhalothrin as the active ingredient, into water as a carrier. This formulation was applied for one minute at room temperature to twenty-five grams of Pioneer corn seed (Cultivar PN3394) in a rotostatic seed treater at a rate of 125 g, 250 g or 500 g active ingredient (Al) to 100 kg seed. The treated seeds were allowed to sit uncapped for four to twenty-four hours before planting.
# (§2) Treated and untreated seeds (Pioneer hybrid PN3394) were planted in a soil mix consisting of Dupo silt loam, 30% Perlite, 20% coarse sand (WB-10 grade) in six groups of tubs (20 in. L×15 in. W×8 in. D). Twelve seeds were planted per tub and three tubs were planted for each treatment regimen. Soil applications of FORCE® 3GR, which contains 3% tefluthrin granule as the active ingredient, were used for two sets of tubs containing untreated seeds. The FORCE 3GR was applied either in-furrow or incorporated into a 5 inch band on the soil surface at the time of planting. The tubs were overhead irrigated until the plants were infested with black cutworm larvae.
# The rate of application for the FORCE 3GR was reported in units of grams of the active ingredient per hectare (g/ha), while the rate of application of the WARRIOR T to the seeds was reported in units of grams of the active ingredient per 100 kilograms of the seeds (g/100 kg). Although the conversion of one of these units to the other will vary somewhat according to the type of seed that is being used, the size and weight of the seed, and the density of planting that is used—among other things—an approximate conversion for corn seed can be carried out as follows. Assuming a seed application rate of lambda cyhalothrin of, for example, 125 g/100 kg of seed and a planting density of 15 lbs seed/ac, about 14.7 acres can be planted with 100 kg of the seed. This is an effective application rate of about 8.5 g of lambda cyhalthrin per acre. At 2.47 ac/ha, the seed treatment level of 125 g/100 kg is approximately equivalent to a surface banding treatment at about 21 g/ha.
# The corn plants were infested at 12 DAP, which corresponds to late growth stage V1 by placing two black cutworm larvae at ¾ instar on the soil surface near the base of the plant. Plants were rated 3, 7 and 10 days after infestation (DAI) for the number of cut plants, as well as damage from leaf feeding. The percent stand reduction due to plant cutting was calculated by dividing the number of cut plants into the number of plants present at infestation. The foliar feeding injury was evaluated using a rating scale of 1=no damage and 10=complete defoliation.
# corn plants = experiment: Vigor rating of corn plants at 12 DAP as indication of phytotoxicity from seed or soil treatment (Reference Example 1); conditions: rating 1 extremely low vigor, 10 highest
# Protocol: as §1, §2
# At twelve days after planting (DAP) but before infestation, the overall health of each plant was rated by looking at emergence, height and appearance. This vigor rating gives an indication of any phytotoxicity from the seed or soil treatment. A rating of 1 indicates extremely low. vigor while 10 is the highest vigor rating.
# black cutworm larvae [2] = experiment: Protection of corn plants against black cutworm damage by seed treatment with tefluthrin, clothianidin and combinations; Colby synergy (Example 2); conditions: for STAND REDUCTION (% at 10 days): 10 DAI; for Percent of Control: stand reduction as percent of untreated control
# Protocol: This example illustrates the efficacy of corn seed treatment with a combination of tefluthrin and clothianidin against plant damage by black cutworm.
# Seed treatment formulations were prepared from RAZE® 2.5 FS formulation (available from Wilbur-Ellis Co.) containing 26.8% tefluthrin, and clothianidin, (E)-(N-[(2-chloro-5-thiazolyl)methyl]-N′-methyl-N″-nitroguanidine; CAS Registry number 210880-92-5. In addition, separate seed treatment formulations were prepared from each of the two insecticides alone. Corn seed was prepared and treated as described in Reference Example 1, except that the treatment levels of the active ingredients on the seeds was as shown in Table 3. Treated and untreated seeds were planted in tubs and cultivated as described in Example 1. The tubs were overhead irrigated until the plants were infested with black cutworm larvae.
# The corn plants were infested at 12 DAP, as described in Reference Example 1, Plants were rated at 10 days after infestation (DAI) for the number of cut plants. The percent stand reduction due to plant cutting was calculated by dividing the number of cut plants into the number of plants present at infestation.
# Whether a combination of insecticides provided synergy in protection against cutworm damage was calculated as described by Colby, Robert. S., in Weeds, 15(1):20-22 (1967). The threshold value (stated as % of control) for synergy of a combination was calculated as =(% of control for treatment A)*(% of control for treatment B)/100(n−1); where n=number of active ingredients in combination. A measured % of control value that is less than the threshold value indicates synergy of the combination. Threshold values for synergy were calculated for each of the combinations of Table 3, and the threshold values for synergy of combinations of the active ingredients at various levels are shown in Table 4.
# [3] = seed treatment 125 g/100 kg seed
# [4] = seed treatment 250 g/100 kg seed
# [5] = seed treatment 500 g/100 kg seed
smiles,measurement,setting,value
"Cc1c(F)c(F)c(COC(=O)[C@@H]2[C@H](/C=C(\Cl)C(F)(F)F)C2(C)C)c(F)c1F (racemic) [Tefluthrin, (2,3,5,6-tetrafluoro-4-methylphenyl)-methyl-(1 alpha, 3 alpha)-(Z)-(±)-3-(2-chloro-3,3,3-trifluoro-1-propenyl)-2,2-dimethylcyclopropanecarboxylate]",Plant Defol. 3 DAI,black cutworm larvae [1]; banded 30 g/ha (FORCE 3GR),1.7
same,% Stand Reduct'n 7 DAI,black cutworm larvae [1]; banded 30 g/ha (FORCE 3GR),0.0%
same,Plant Defol. 7 DAI,black cutworm larvae [1]; banded 30 g/ha (FORCE 3GR),1.7
same,% Stand Reduct'n 10 DAI,black cutworm larvae [1]; banded 30 g/ha (FORCE 3GR),0.0%
same,Plant Defol. 10 DAI,black cutworm larvae [1]; banded 30 g/ha (FORCE 3GR),0.3
same,% Stand Reduct'n 3 DAI,"black cutworm larvae [1]; banded 30 g/ha (FORCE 3GR, 5 inch soil surface band)",0.0%
same,Plant Defol. 3 DAI,black cutworm larvae [1]; in-furrow 30 g/ha (FORCE 3GR),5.0
same,% Stand Reduct'n 7 DAI,black cutworm larvae [1]; in-furrow 30 g/ha (FORCE 3GR),48.0%
same,Plant Defol. 7 DAI,black cutworm larvae [1]; in-furrow 30 g/ha (FORCE 3GR),6.0
same,% Stand Reduct'n 10 DAI,black cutworm larvae [1]; in-furrow 30 g/ha (FORCE 3GR),48.0%
same,Plant Defol. 10 DAI,black cutworm larvae [1]; in-furrow 30 g/ha (FORCE 3GR),5.3
same,Vigor at 12 DAP,corn plants; soil granule (FORCE 3GR) banded 30 g/ha,8.7
same,Vigor at 12 DAP,corn plants; soil granule (FORCE 3GR) in-furrow 30 g/ha,9.0
"CN/C(=N\[N+](=O)[O-])NCc1cnc(Cl)s1 [Clothianidin, (E)-1-(2-chloro-1,3-thiazol-5-ylmethyl)-3-methyl-2-nitroguanidine]",STAND REDUCTION (% at 10 days),black cutworm larvae [2]; seed treatment clothianidin 50 gm/100 kg seed,61.15%
same,STAND REDUCTION (% at 10 days),black cutworm larvae [2]; seed treatment clothianidin 100 gm/100 kg seed,34.38%
same,Percent of Control,black cutworm larvae [2]; clothianidin 50 gm/100 kg seed,61.2%
same,Percent of Control,black cutworm larvae [2]; clothianidin 100 gm/100 kg seed,34.4%
"CC1(C)[C@H](C(=O)O[C@H](C#N)c2cccc(Oc3ccccc3)c2)[C@@H]1/C=C(\Cl)C(F)(F)F [λ-cyhalothrin, [1 alpha (s), 3 alpha(z)]-cyano(3-phenoxyphenyl)methyl-3-(2-chloro-3,3,3-trifluoro-1-propenyl)-2,2-dimethylcyclopropane carboxylate]",Plant Defol. 3 DAI,black cutworm larvae [1]; [3],4.3
same,Plant Defol. 7 DAI,black cutworm larvae [1]; [3],5.0
same,Plant Defol. 10 DAI,black cutworm larvae [1]; [3],3.3
same,% Stand Reduct'n 3 DAI,black cutworm larvae [1]; [4],3.0%
same,Plant Defol. 3 DAI,black cutworm larvae [1]; [4],3.7
same,% Stand Reduct'n 7 DAI,black cutworm larvae [1]; [4],3.0%
same,% Stand Reduct'n 7 DAI,"black cutworm larvae [1]; seed treatment 250 g/100 kg seed, listed as lambda-cyhalothrin",3%
same,Plant Defol. 7 DAI,black cutworm larvae [1]; [4],2.7
same,% Stand Reduct'n 10 DAI,black cutworm larvae [1]; [4],3.0%
same,Plant Defol. 10 DAI,black cutworm larvae [1]; [4],1.7
same,% Stand Reduct'n 3 DAI,black cutworm larvae [1]; [5],0.0%
same,Plant Defol. 3 DAI,black cutworm larvae [1]; [5],2.0
same,% Stand Reduct'n 7 DAI,black cutworm larvae [1]; [5],0.0%
same,% Stand Reduct'n 7 DAI,"black cutworm larvae [1]; seed treatment 500 g/100 kg seed, listed as lambda-cyhalothrin",0%
same,Plant Defol. 7 DAI,black cutworm larvae [1]; [5],2.3
same,% Stand Reduct'n 10 DAI,black cutworm larvae [1]; [5],0.0%
same,Plant Defol. 10 DAI,black cutworm larvae [1]; [5],1.0
same,Vigor at 12 DAP,corn plants; seed treatment 125 g AI/100 kg corn seed,9.0
same,Vigor at 12 DAP,corn plants; seed treatment 250 g AI/100 kg corn seed,8.3
same,Vigor at 12 DAP,corn plants; seed treatment 500 g AI/100 kg corn seed,8.3
